Where “and” joins values, the source holds several entries; their conditions need not be identical. Identical values can stand only once. ± gives the expanded uncertainty stated by the source.
Experiments:
[1] = xn = mol fraction of the nth substance listed; conditions: 101 kPa, Liquid; for mass density: Vibrating tube method; for speed of sound: Frequency=3 MHz, Sing-around technique in a fixed-path interferometer
[2] = 101 kPa; for speed of sound: Frequency=3 MHz, Sing-around technique in a fixed-path interferometer; for mass density: Vibrating tube method

CC#N [acetonitrile] + CN1CCCC1=O
[1], x2 = 0
Conditions | mass density [kg/m3] | speed of sound [m/s]
293.15 K | 781.989 ± 0.52 | –
298.15 K | 776.616 ± 0.52 | 1278.6 ± 0.88
303.15 K | 771.178 ± 0.52 | 1258.4 ± 0.88
308.15 K | 765.719 ± 0.52 | 1238.3 ± 0.87
313.15 K | 760.223 ± 0.53 | 1218.2 ± 0.87
318.16 K | 754.702 ± 0.53 | 1198.1 ± 0.86
323.16 K | 749.144 ± 0.53 | 1178 ± 0.86

CN1CCCC1=O [N-methylpyrrolidone] + ClC(Cl)Cl
[1], x1 = 1
Conditions | mass density [kg/m3] | speed of sound [m/s]
293.15 K | 1032.51 ± 0.51 | 1564.7 ± 0.94
298.14 K | 1028.07 ± 0.51 | 1545.5 ± 0.94
303.14 K | 1023.61 ± 0.51 | 1526.1 ± 0.93
308.15 K | 1019.15 ± 0.51 | 1506.9 ± 0.93

CN1CCCC1=O [N-methylpyrrolidone]
[2], Liquid
Conditions | mass density | speed of sound
293.15 K | 1032.25 ± 0.51 kg/m3 and 1032.51 ± 0.51 kg/m3 | 1564.7 ± 0.94 m/s
298.14 K | 1028.07 ± 0.51 kg/m3 | 1545.5 ± 0.94 m/s
298.15 K | 1027.79 ± 0.51 kg/m3 | 1544.6 ± 0.94 m/s
303.14 K | 1023.61 ± 0.51 kg/m3 | 1526.1 ± 0.93 m/s
303.15 K | 1023.33 ± 0.51 kg/m3 | 1525.3 ± 0.93 m/s
308.15 K | 1019.15 ± 0.51 kg/m3 and 1018.87 ± 0.51 kg/m3 | 1506 ± 0.93 m/s and 1506.9 ± 0.93 m/s
313.15 K | 1014.41 ± 0.51 kg/m3 | 1486.8 ± 0.92 m/s
318.15 K | 1009.95 ± 0.51 kg/m3 | 1467.8 ± 0.92 m/s
323.16 K | 1005.48 ± 0.51 kg/m3 | 1448.9 ± 0.91 m/s

CC#N [acetonitrile] + O=C1CCCN1
[1], x2 = 0
Conditions | mass density [kg/m3] | speed of sound [m/s]
298.15 K | 776.609 ± 0.52 | 1278.9 ± 0.88
303.15 K | 771.183 ± 0.52 | 1259 ± 0.87
308.15 K | 765.722 ± 0.52 | 1239.1 ± 0.87
313.15 K | 760.231 ± 0.53 | 1219.3 ± 0.86
318.15 K | 754.709 ± 0.53 | 1199.5 ± 0.86
323.16 K | 749.15 ± 0.53 | 1179.6 ± 0.85

ClC(Cl)Cl [trichloromethane]
[2], Liquid
Conditions | mass density | speed of sound
293.15 K | 1487.52 ± 0.57 kg/m3 and 1488.55 ± 0.59 kg/m3 | 1001.5 ± 0.79 m/s and 1000.9 ± 0.78 m/s
295.15 K | 1483.74 ± 0.57 kg/m3 | –
297.15 K | 1479.93 ± 0.57 kg/m3 | –
298.15 K | 1478.02 ± 0.57 kg/m3 and 1479.07 ± 0.55 kg/m3 | 984.65 ± 0.78 m/s and 984.33 ± 0.78 m/s
303.15 K | 1468.47 ± 0.57 kg/m3 | 967.76 ± 0.78 m/s
303.16 K | 1469.52 ± 0.57 kg/m3 | 967.53 ± 0.78 m/s
308.15 K | 1459.91 ± 0.57 kg/m3 | 950.62 ± 0.78 m/s
308.16 K | 1458.85 ± 0.58 kg/m3 | 950.87 ± 0.77 m/s

CC#N [acetonitrile]
[2], Liquid
Conditions | mass density | speed of sound
293.15 K | 781.989 ± 0.52 kg/m3 | –
298.15 K | 776.609 ± 0.52 kg/m3 and 776.616 ± 0.52 kg/m3 | 1278.9 ± 0.88 m/s and 1278.6 ± 0.88 m/s
303.15 K | 771.183 ± 0.52 kg/m3 and 771.178 ± 0.52 kg/m3 | 1259 ± 0.88 m/s and 1258.4 ± 0.88 m/s
308.15 K | 765.722 ± 0.52 kg/m3 and 765.719 ± 0.52 kg/m3 | 1239.1 ± 0.87 m/s and 1238.3 ± 0.87 m/s
313.15 K | 760.223 ± 0.53 kg/m3 and 760.231 ± 0.53 kg/m3 | 1219.3 ± 0.86 m/s and 1218.2 ± 0.86 m/s
318.15 K | 754.709 ± 0.53 kg/m3 | 1199.5 ± 0.86 m/s
318.16 K | 754.702 ± 0.53 kg/m3 | 1198.1 ± 0.86 m/s
323.16 K | 749.144 ± 0.53 kg/m3 and 749.15 ± 0.53 kg/m3 | 1178 ± 0.86 m/s and 1179.6 ± 0.84 m/s

ClC(Cl)Cl [trichloromethane] + O=C1CCCN1
[1], x2 = 0
Conditions | mass density [kg/m3] | speed of sound [m/s]
293.15 K | 1487.52 ± 0.57 | 1001.5 ± 0.79
295.15 K | 1483.74 ± 0.57 | –
297.15 K | 1479.93 ± 0.57 | –
298.15 K | 1478.02 ± 0.57 | 984.65 ± 0.78
303.15 K | 1468.47 ± 0.57 | 967.76 ± 0.78
308.16 K | 1458.85 ± 0.57 | 950.87 ± 0.78

O=C1CCCN1 [2-pyrrolidinone]
[2], Metastable liquid
Conditions | mass density [kg/m3] | speed of sound [m/s]
293.15 K | 1111.44 ± 0.51 | 1649.3 ± 0.94
298.15 K | 1107.35 ± 0.51 | 1632.9 ± 0.94
301.15 K | 1104.88 ± 0.51 | –
303.15 K | 1103.26 ± 0.51 | 1616.7 ± 0.93
308.15 K | 1099.17 ± 0.51 | 1600.5 ± 0.93
313.15 K | 1095.08 ± 0.51 | 1584.5 ± 0.92
318.16 K | 1091 ± 0.51 | 1568.6 ± 0.92
323.16 K | 1086.92 ± 0.51 | 1552.8 ± 0.91
